Measured values published in PubChem BioAssay (NCI).
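Dose response: 5 concentrations. Exposure: 48 h. Format: 96-well plates. Endpoint: linear interpolation; highest concentration if not reached. At the GI50, growth is halved. TGI: total growth inhibition.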

Experiments:
Assay in all cases: NCI-60 cell line screen, 48 h
[1] = tested on: NCI-H226 lung
[2] = tested on: SN12C renal
[3] = tested on: LOX IMVI melanoma
[4] = tested on: OVCAR-5 ovarian
[5] = tested on: MDA-MB-435
[6] = tested on: SF-295 CNS
[7] = tested on: ACHN renal
[8] = tested on: DU-145 prostate
[9] = tested on: HS 578T breast
[10] = tested on: UO-31 renal

Structure (SMILES) | TGI [1] [µM] | TGI [2] [µM] | TGI [3] [µM] | TGI [4] [µM] | TGI [5] [µM] | TGI [6] [µM] | TGI [7] [µM] | TGI [8] [µM] | TGI [9] [µM] | TGI [10] [µM] | GI50 [2] [µM] | GI50 [4] [µM] | GI50 [5] [µM] | GI50 [6] [µM] | GI50 [7] [µM] | GI50 [8] [µM] | GI50 [10] [µM]
O=C1C(Cl)=C(N(C(=O)c2ccccc2)C(=O)c2ccccc2)C(=O)c2ccccc21 | > 100 | 61.3 | > 100 | 34.3 | 32.4 | > 100 | 13.9 | > 100 | 98 | 15.7 | – | – | – | – | – | – | –
Nc1ncn2c(n1)nc1ccccc12 | > 100 | > 100 | – | > 100 | > 100 | > 100 | > 100 | > 100 | > 100 | > 100 | – | – | – | – | – | – | –
COc1ccccc1NC(=O)CC(=O)N1N=C(N2c3ccccc3Sc3ccccc32)CC1c1ccccc1 (centres undefined) | > 100 | > 100 | – | > 100 | > 100 | > 100 | > 100 | > 100 | > 100 | > 100 | – | – | – | – | – | – | –
O=C(N=c1ccc2nc(=O)[nH]n(O)c-2c1)C(F)(F)F | > 100 | > 100 | > 100 | > 100 | > 100 | > 100 | > 100 | > 100 | > 100 | > 100 | – | – | – | – | – | – | –
O=C(c1ccccc1)C1S(=O)(=O)OCCOS1(=O)=O | – | > 100 | > 100 | – | – | > 100 | – | – | – | > 100 | – | – | – | – | – | – | –
O=C1CC(c2ccccc2)=Nc2ccccc2N1 | > 100 | > 100 | 97.6 | > 100 | – | > 100 | > 100 | – | – | > 100 | – | – | – | – | – | – | –
O=C1/C=C(/c2ccc(O)cc2)[C@@H](O)Cc2ccc(O)cc2O1 | 89.6 | > 100 | > 100 | > 100 | – | > 100 | > 100 | – | – | > 100 | – | – | – | – | – | – | –
CCOC(=O)/C(=C/c1ccc(C(=O)OC)cc1)N(CC)CC | 79 | > 100 | > 100 | > 100 | – | – | > 100 | – | – | > 100 | – | – | – | – | – | – | –
NC(CSSCC(N)=NCC12CC3CC(CC(C3)C1)C2)=NCC12CC3CC(CC(C3)C1)C2 | 43.3 | 31.1 | – | 34.2 | 28.1 | 31.3 | 26.6 | 32.5 | 50.7 | 46.7 | – | – | – | – | – | – | –
CCOC(=O)c1nc2ccc(C(F)(F)F)cc2nc1Nc1ccc(Cl)c(Cl)c1 | – | > 100 | > 100 | > 100 | > 100 | > 100 | > 100 | > 100 | > 100 | > 100 | – | – | – | – | – | – | –
Cc1c(N=Nc2ccccc2)c(C)n(C2OC(CO)C(O)C(O)C2O)c(=S)c1C#N (centres undefined) | – | > 100 | 54.8 | 81.5 | 71.4 | > 100 | > 100 | > 100 | > 100 | 73.1 | – | – | – | – | – | – | –
COc1c2c(c3ccccc3c1O)C1C=CC2C1 (centres undefined) | – | 28.5 | 17.1 | 33.9 | – | – | 27.5 | – | – | 17.6 | – | – | – | – | – | – | –
O=C(O)c1ccc(C2=Cc3cc(Cl)ccc3OC2)cc1 | > 100 | > 100 | > 100 | > 100 | – | > 100 | > 100 | – | – | > 100 | – | – | – | – | – | – | –
CCN(CC)CCN1C(=O)c2c(c3c4ccccc4[nH]c3c3ccc4ccccc4c23)C1=O | – | 3.22 | – | 3.09 | 3.17 | 2.03 | 2.87 | 3.06 | – | 2.66 | 1.71 | 1.64 | 1.77 | 0.722 | 1.54 | 1.65 | 1.36
Cc1nc(C)c(N2CCNCC2)c(=O)[nH]1 | > 100 | > 100 | > 100 | – | > 100 | > 100 | > 100 | > 100 | > 100 | > 100 | – | – | – | – | – | – | –
O=c1oc2ccccc2cc1-c1cn2c(n1)sc1ccccc12 | > 100 | > 100 | > 100 | – | > 100 | > 100 | > 100 | > 100 | > 100 | > 100 | – | – | – | – | – | – | –
NC1=NS(=O)(=O)Nc2nc(-c3ccccc3)[nH]c21 | > 100 | > 100 | > 100 | > 100 | – | > 100 | > 100 | – | – | > 100 | – | – | – | – | – | – | –
Cn1c(CO)ccc1-c1ccc(-c2ccc[se]2)[se]1 | 4.78 | 99.5 | > 100 | – | 26.2 | > 100 | > 100 | 58 | > 100 | > 100 | – | – | – | – | – | – | –
CC(=O)NC(C)(C)C1CCC(C)=C(c2ccccc2)C1 (centres undefined) | – | > 100 | > 100 | > 100 | > 100 | > 100 | – | > 100 | – | > 100 | – | – | – | – | – | – | –

Structure (SMILES) | TGI [1] [µM] | TGI [2] [µM] | TGI [3] [µM] | TGI [4] [µM] | TGI [5] [µM] | TGI [6] [µM] | TGI [7] [µM] | TGI [8] [µM] | TGI [9] [µM] | TGI [10] [µM] | GI50 [2] [µM] | GI50 [4] [µM] | GI50 [5] [µM] | GI50 [6] [µM] | GI50 [7] [µM] | GI50 [8] [µM] | GI50 [10] [µM]
CC(C)=CCC/C(C)=C/COc1c2ccoc2cc2oc(=O)ccc12 | 87.6 | > 100 | 46.4 | 75.8 | > 100 | 75.3 | 83.8 | – | > 100 | 59.7 | – | – | – | – | – | – | –
O=[N+]([O-])C(/C=N/Nc1ccccc1)/C=N/Nc1ccccc1 | > 100 | > 100 | > 100 | > 100 | – | > 100 | > 100 | – | – | > 100 | – | – | – | – | – | – | –
CC1(C)CCC(C)(C)C1C(=O)NC(O)C(=O)O (centres undefined) | > 100 | > 100 | > 100 | > 100 | > 100 | – | > 100 | > 100 | > 100 | > 100 | – | – | – | – | – | – | –
CCOC(=O)C(Cc1c[nH]c2cc([N+](=O)[O-])ccc12)NS(=O)(=O)c1ccc2ccccc2c1 (centres undefined) | 48.2 | 34.4 | 31.6 | – | – | 32.5 | 57.9 | – | – | 63.5 | – | – | – | – | – | – | –
O=C(CSc1nc(-c2ccccc2)c(-c2ccccc2)[nH]1)N/N=C/c1ccc(O)cc1 | 82 | 66.7 | 43 | – | – | 57.4 | 55.9 | – | – | 93.2 | – | – | – | – | – | – | –
Cc1ccc(C2=C(C#N)C(N)OC3=C2COc2ccccc23)cc1 (centres undefined) | > 100 | 74.4 | > 100 | – | > 100 | – | > 100 | 69.1 | – | 33.7 | – | – | – | – | – | – | –
COc1cc2c(c(O)c1OC)CC1CCC(=O)N1C2c1cccc2ccccc12 (centres undefined) | – | 34.2 | 52.4 | 38.2 | 40.4 | 41.1 | > 100 | 37.3 | 69.3 | 55.4 | – | – | – | – | – | – | –
Clc1ccc(-c2cn3c(nc4ccccc43)c(/C=C/c3ccco3)n2)cc1 | > 100 | > 100 | > 100 | > 100 | > 100 | – | > 100 | > 100 | 61.8 | > 100 | – | – | – | – | – | – | –
CC(O)(P(=O)(O)O)P(=O)(O)OCC(O)CN1CCOCC1 (centres undefined) | > 100 | – | > 100 | > 100 | > 100 | > 100 | > 100 | > 100 | > 100 | > 100 | – | – | – | – | – | – | –
COc1ccc([C@@H]2CC(=O)N2)cc1 | > 100 | > 100 | – | > 100 | – | > 100 | > 100 | – | – | > 100 | – | – | – | – | – | – | –
O=C1CC[C@@]2(O)[C@H]3Cc4ccc(-c5ccccc5)c5c4[C@@]2(CCN3CC2CC2)[C@H]1O5 | 50.1 | 72.4 | 32.8 | 35.4 | 26.6 | 33.6 | 42.4 | 62.7 | – | 32.2 | – | – | – | – | – | – | –
COC(=O)c1c(O)ccc2[nH]c3c(O)c4ccccc4cc3c12 | > 100 | > 100 | – | > 100 | 70.7 | 38.1 | 96.3 | 71 | 72.8 | 84.9 | – | – | – | – | – | – | –
CCOC(=O)NC(OC)(C(F)(F)F)C(F)(F)F | > 100 | – | > 100 | – | > 100 | > 100 | > 100 | > 100 | > 100 | > 100 | – | – | – | – | – | – | –
O=C(/C=C(\S/C=C(/c1ccccc1)N1CCn2c(C(=O)c3ccccc3)c(C(=O)c3ccccc3)c(C(=O)c3ccccc3)c21)C(=O)c1ccccc1)c1ccccc1 | – | > 10 | – | > 10 | > 10 | > 10 | > 10 | > 10 | > 10 | – | – | – | – | – | – | – | –
NNC(=S)NCCNC(=S)NN | – | > 100 | > 100 | > 100 | > 100 | > 100 | > 100 | > 100 | > 100 | > 100 | – | – | – | – | – | – | –
O=C(O)c1cnc(-n2[nH]c3c(c2=O)CCCC3)[nH]c1=O | > 100 | > 100 | – | > 100 | > 100 | > 100 | > 100 | > 100 | > 100 | > 100 | – | – | – | – | – | – | –
O=C(c1ccc(Cl)cc1)N(C(=S)N1CCN(c2ccccn2)CC1)C1CCCCC1 | 70.5 | > 100 | > 100 | > 100 | – | > 100 | > 100 | – | – | > 100 | – | – | – | – | – | – | –
C/C=C1\CN(C(=O)OC(C)(C)C)C1C(=O)OC(C)(C)C (centres undefined) | – | > 100 | > 100 | > 100 | > 100 | > 100 | > 100 | – | > 100 | > 100 | – | – | – | – | – | – | –
